Measured values as given in patent US8236820B2, “Anti-inflammatory compounds and uses thereof” (priority 2007, dated 2012).

Assays:
MIA-PaCa-2 = assay: Cell viability (MTT) assay, 24-h IC50, MIA-PaCa-2; assay type: cell-based, human; conditions: Homo sapiens, MIA PaCa-2, 24 h, read-out: 24-h IC50
SW480 = assay: Cell viability (MTT) assay, 24-h IC50, SW480; assay type: cell-based, human; conditions: Homo sapiens, SW480, 24 h, read-out: 24-h IC50
APC^Min/+ mice = assay: APC Min/+ mice study of intestinal tumors; assay type: in vivo; conditions: 50 mg/kg/day gavage, 4 weeks
Text: APC^Min/+ mice study: Min mice have a truncating mutation in the Apc gene that predisposes them to the development of gastrointestinal tumors in the small intestine and colon (Lipkin M, Yang K, Edelmann W, et al. Preclinical mouse models for cancer chemoprevention studies. Ann N Y Acad Sci 1999; 889:14-9.). In many important ways, this model system represents a useful (and extensively utilized) experimental system that recapitulates the relevant steps of colon carcinogenesis.
Eleven week-old male C57BL/6J APC^Min/+ mice divided into […] groups of 10 mice/group were treated for 4 weeks via gavage administration as follows: group 1 was treated with vehicle (corn oil); and group 2 was treated with phospho-sulindac I 50 mg/kg/day.

MCF-7 = assay: Cell viability (MTT) assay, 24-h IC50, MCF-7; assay type: cell-based, human; conditions: Homo sapiens, MCF7, 24 h, read-out: 24-h IC50
BxPC-3 = assay: Cell viability (MTT) assay, 24-h IC50, BxPC-3; conditions: Homo sapiens, BXPC-3, 24 h, read-out: 24-h IC50
Method: Cells were incubated at 37° C. in 5% CO2. Cells were seeded at 5.5×10^4 cells/cm^2, allowed to attach overnight, and the following morning cells were treated with each of the test compounds.
Cell viability assay: We used an assay based on the reduction of 3-(4,5-dimethylthiazol-2-yl)-2,5-diphenyltetrazolium bromide dye (MTT), which was determined according to the manufacture's protocol (Promega, Madison, Wis., USA).

colon cancer cells = assay: Apoptosis (annexin V/PI), DFMO and phospho-sulindac I, 48 h; assay type: cell-based, human; conditions: 48 h of incubation; concentrations below IC50s
Method: (§1) A—Left panel: Cell viability was determined in HT-29 (full bars) and SW-480 (empty bars) cells after 48 h of incubation with 5 mM DFMO, 40 μM phospho-sulindac (P-S) or simultaneous combination of DFMO and P-S. Data are expressed as percentage of control cells (cells incubated only with DMSO). […] Right panel: In this isobologram the additivity line connects the IC50 value of each compound used alone. A and B represent two different dose pairs of each compound (their respective concentrations are shown in parentheses). The location of both A and B below the additivity line signifies synergy. […] DNA content was determined from propidium iodide (PI) fluorescence. C—Apoptosis and necrosis were determined by combined staining with annexin V and PI and determining fluorescence intensity. The percentages of apoptotic cells were determined using the dual staining with annexin V and propidium iodide and are indicated in each quadrant: left bottom quadrant, viable cells (annexin V-negative/PI-negative); right bottom quadrant, early apoptotic cells (annexin V-positive/PI-negative); right upper quadrant, late apoptotic cells (annexin V-positive/PI-positive); left upper quadrant, necrotic cells (annexin V-negative, PI-positive). […]

HT-29 = assay: DFMO / phospho-sulindac I synergy, cell growth at 48 h, HT-29; assay type: cell-based, human; conditions: HT-29, 48 h; DFMO 5 mM, phospho-sulindac I 40 μM
Method: as §1

HT29 = assay: Cell viability (MTT) assay, 24-h IC50, HT29; assay type: cell-based, human; conditions: Homo sapiens, HT-29, 24 h, read-out: 24-h IC50
SW480 cells = assay: Polyamine levels in SW480 cells; assay type: cell-based, human
Text: Further evidence of the synergy between the two compounds was provided by their effect on polyamine levels. Conventional sulindac is known to reduce polyamine levels in colon cancer cells (Yerushalmi et al. Role of polyamines in arginine-dependent colon carcinogenesis in Apc(Min) (/+) mice. Mol Carcinog 2006; 45(10):764-73.; Choi et al. Combination of 5-fluorouracil and N1,N11-diethylnorspermine markedly activates spermidine/spermine N1-acetyltransferase expression, depletes polyamines, and synergistically induces apoptosis in colon carcinoma cells. J Biol Chem 2005; 280(5):3295-304; and Basuroy and Gerner. Emerging concepts in targeting the polyamine metabolic pathway in epithelial cancer chemoprevention and chemotherapy. J Biochem (Tokyo) 2006; 139(1):27-33).

[1] = system: MDA-MB 231 human breast cancer cells; assay: Annexin V and propidium iodide staining in MDA-MB231; assay type: cell-based; conditions: MDA-MB231, compound at its IC50, 24 h
Method: Annexin V and propidium iodide (PI) staining: Cells were seeded at a density of 1×10^5 cells/well and treated for 24 h with various concentrations of each compound or equivalent volumes of DMSO. Briefly, after incubation with the test compounds, cells were trypsinized and stained with Annexin V-FITC (Invitrogen) and PI (0.5 μg/ml). Following incubation at room temperature for 15 min in the dark, annexin V-FITC and PI fluorescence intensities were analyzed by FACScaliber (BD Bioscience). Annexin V (+)/PI (−) cells are in early apoptosis, annexin V (+)/PI (+) cells are in late apoptosis (secondary necrosis), and annexin V (−)/ PI (+) cells are necrotic cells.
As summarized in Table 2 below, in MDA-MB231 cells, all six compounds, each used at its IC50 concentration, a) inhibited cell proliferation between 6% and 50% compared to controls; b) induced both early and late apoptosis, as well as necrosis; and c) inhibited the G1 to S cell cycle phase transition. In this Table, the values for proliferation are the percentage of the corresponding control values. Those for apoptosis and necrosis refer to the percentage of cells in each category with respect to the entire cell population, and are to be compared to the control (vehicle only-treated) cells (uppermost row).

For `CCOP(=O)(OCC)OCCCCOC(=O)CC1=C(C)/C(=C/c2ccc([S+](C)[O-])cc2)c2ccc(F)cc21` (stereo not drawn) [Phospho-sulindac I], the IC50 (MIA-PaCa-2) was 88 µM, the IC50 (SW480) was 98 µM and the “signs of toxicity in Min mice” value (APC^Min/+ mice) was “without any overt signs of toxicity”. For the same compound, the “decreased the number of tumors in the small intestine” value (APC^Min/+ mice; vs vehicle, p<0.002) was 57.2%, the “reduction of tumors in the colon” value (APC^Min/+ mice; vs vehicle, p<0.02) was 61.8% and the “number of colon tumors” value (APC^Min/+ mice; vehicle 1.6±0.8) was 0.6±0.5. The “number of intestinal tumors” value (APC^Min/+ mice; vehicle 33.6±8.7) was 19.4±12.0, the IC50 (MCF-7) was 62 µM and the IC50 (BxPC-3) was 62 µM. The “percentage of apoptotic cells” value (colon cancer cells) was 16.5%, the “reduction in cell number” value (HT-29) was 41% and the IC50 (HT29) was 65 µM. For the same compound, the level of putrescine (SW480 cells) was 91 % of control values, the level of spermidine (SW480 cells) was 34 % of control values and the level of spermine (SW480 cells) was 9 % of control values. The “Necrosis (%)” value ([1]; % of entire cell population (control 0.6)) was 1.1%, the “Early apoptosis (%)” value ([1]; % of entire cell population (control 1.4)) was 1.7% and the “Late apoptosis (%)” value ([1]; % of entire cell population (control 2.0)) was 4.7%.
